From paper PMC4448982, “LP-925219 maximizes urinary glucose excretion in mice by inhibiting both renal SGLT1 and SGLT2” (Pharmacology Research & Perspectives, 2015)

Key:
[1] = target: T1, renal SGLT1 and SGLT2 (Mus musculus, UniProt Q8C3K6); experiment: Metabolic cage study, 24-h urinary glucose excretion; format: in vivo; conditions: SGLT2 KO mice
T1 construct: from tissue; host or cells: kidney of living WT, SGLT1 KO, SGLT2 KO and DKO mice (C57BL/6J-129 SvEv hybrid)
T1 sequence (Q8C3K6 1-665): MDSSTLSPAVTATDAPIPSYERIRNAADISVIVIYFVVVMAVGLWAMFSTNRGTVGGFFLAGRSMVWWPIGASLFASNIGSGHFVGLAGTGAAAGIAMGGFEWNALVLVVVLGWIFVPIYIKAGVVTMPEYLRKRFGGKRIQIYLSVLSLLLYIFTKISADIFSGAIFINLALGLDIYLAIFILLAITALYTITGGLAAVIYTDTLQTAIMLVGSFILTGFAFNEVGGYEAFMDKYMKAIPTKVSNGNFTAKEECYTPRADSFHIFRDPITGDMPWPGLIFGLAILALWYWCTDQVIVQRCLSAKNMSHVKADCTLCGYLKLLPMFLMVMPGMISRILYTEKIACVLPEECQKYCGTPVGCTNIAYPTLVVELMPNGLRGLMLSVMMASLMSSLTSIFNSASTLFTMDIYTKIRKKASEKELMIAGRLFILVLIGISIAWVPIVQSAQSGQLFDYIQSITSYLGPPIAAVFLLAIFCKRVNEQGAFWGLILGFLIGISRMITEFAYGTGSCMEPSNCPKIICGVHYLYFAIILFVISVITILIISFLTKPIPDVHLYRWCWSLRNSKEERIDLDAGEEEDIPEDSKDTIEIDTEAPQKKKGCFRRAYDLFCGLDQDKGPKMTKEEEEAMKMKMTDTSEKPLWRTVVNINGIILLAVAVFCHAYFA
Method: (§1) Mice were individually housed in Nalgene Metabolic Cages for Mice (product MTB-0311), and 24-h urine collections were made to determine 24-h UGE, as described previously (Powell et al. [2013a]). Some mice received a single dose of either LP-925219 or vehicle by oral gavage at 8 am immediately prior to initiating collection of 24-h urine samples; in addition, some mice received two doses of either vehicle or 60 mg/kg LP-925219 by oral gavage, with the first dose given at 8 am and the second dose given at 6 pm, nearly midway through the collection of the 24-h urine sample.
(§2) Figure 5 UGE values in mice treated with a single dose of LP-925219. After DKO, S2 KO, S1 KO, and WT littermate mice received, by a single oral gavage at 8 am, either vehicle (Veh) or LP-925219 at a dose of (A) 1 mg/kg; (B) 10 mg/kg; or (C) 60 mg/kg, the mice were placed in metabolic cages and their urine was collected over the next 24 h and analyzed for total glucose. N = 5–11 mice/group. UGE < DKO UGE: *P < 0.05, **P < 0.01, ***P < 0.001; LP-925219 UGE > Veh UGE for the same group, ^^^P < 0.001. UGE, urinary glucose excretion.
(§3) Figure 6 UGE values in mice treated with two doses of 60 mg/kg LP-925219. DKO, S2 KO, S1 KO, and WT littermate mice received, by oral gavage at 8 am and then again at 6 pm, either vehicle (Veh) or LP-925219 at a dose of 60 mg/kg. The mice were placed in metabolic cages after the first gavage and their urine was collected over the next 24 h and analyzed for total glucose. N = 6–11 mice/group. UGE < DKO UGE, ***P < 0.001; LP-925219 UGE > Veh UGE for the same group, ^^^P < 0.001. UGE, urinary glucose excretion.

[2] = system: renal SGLT1 and SGLT2; experiment: as above; format: in vivo, mouse
Method: as §1, §2, §3

[3] = target: dog SGLT2 (Canis lupus familiaris, UniProt Q5U9C9); experiment: 14C-AMG uptake assay, cells expressing dog SGLT2; format: cell-based; conditions: mean ± SD
Source text: Methods for generating cell lines expressing mouse, rat, and dog SGLT1 and SGLT2 are published (Powell et al. [2013b], [2014]). Full-length coding sequence of human SGLT1 (NP_000334) and human SGLT2 (NP_003032.1) with an HA-tag at the N-terminus were cloned into the mammalian expression vector pIRESpuro2 (Clontech, Mountain View, CA). HEK293 cells (ATCC, Manassas, VA) were transfected with the pIRESpuro2 vector containing human SGLT1 or SGLT2 and bulk stable cell lines were selected in the presence of 0.5 μg/mL of puromycin.
Cell lines expressing SGLT1 or SGLT2 were plated into poly-D-lysine-coated 384-well plates, and culture overnight in cell growth medium. Cells were washed, and then incubated in uptake buffer ([…], […] KCl, […] CaCl2, […] MgCl2, […] HEPES/Tris, 1 mg/mL of bovine serum albumin, pH7.4) containing [^14C]α-methylglucopyranoside (^14C-AMG), a nonmetabolizable glucose analog specific for sodium-dependent glucose transporters (Wright and Turk [2004]). The inhibition of SGLT1 or SGLT2 was determined by measuring SGLT1/2-mediated ^14C-AMG uptake in the presence of increasing compound concentrations of LP-925219. […] Standard sigmoidal dose–response model curves were fitted, and the IC50 value was computed as the LP-925219 concentration that inhibited the ^14C-AMG uptake by 50% between baseline and maximum uptake.

Chain of dog SGLT2 (Q5U9C9 entry or part of it): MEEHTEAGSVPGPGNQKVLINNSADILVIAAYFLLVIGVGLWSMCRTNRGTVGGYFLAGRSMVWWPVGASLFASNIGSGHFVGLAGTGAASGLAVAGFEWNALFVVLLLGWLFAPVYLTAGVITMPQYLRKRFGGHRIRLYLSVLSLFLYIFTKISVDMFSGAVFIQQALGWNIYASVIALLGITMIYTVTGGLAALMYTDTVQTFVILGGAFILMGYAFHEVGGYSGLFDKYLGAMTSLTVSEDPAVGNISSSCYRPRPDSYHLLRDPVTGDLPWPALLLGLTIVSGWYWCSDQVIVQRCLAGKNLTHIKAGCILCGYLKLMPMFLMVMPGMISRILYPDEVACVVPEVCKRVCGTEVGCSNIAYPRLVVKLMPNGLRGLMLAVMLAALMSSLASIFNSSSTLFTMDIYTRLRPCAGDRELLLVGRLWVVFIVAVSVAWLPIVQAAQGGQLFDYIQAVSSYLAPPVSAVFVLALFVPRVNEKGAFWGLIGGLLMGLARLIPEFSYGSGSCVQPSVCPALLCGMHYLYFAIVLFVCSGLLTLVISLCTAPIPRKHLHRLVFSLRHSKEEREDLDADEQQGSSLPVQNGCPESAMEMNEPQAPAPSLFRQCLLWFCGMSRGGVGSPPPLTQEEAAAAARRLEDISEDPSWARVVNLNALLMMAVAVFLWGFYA

COc1ccc(Cc2cc([C@@H]3O[C@H](SC)[C@@H](O)[C@H](O)[C@H]3O)ccc2Cl)cc1 [LP-925219]
24-h UGE ([1]; single oral dose 60 mg/kg, maximal = vehicle-treated DKO): 80 ± 18 % of maximal | 24-h UGE ([1]; single oral dose 1 or 10 mg/kg, vs vehicle): did not show a significant increase | 24-h UGE ([1]; two oral 60 mg/kg doses (8 am, 6 pm)): 89 ± 16 % of maximal | 24-h UGE ([2]; DKO mice, single oral dose 1, 10 or 60 mg/kg, vs vehicle): not significantly increased | 24-h UGE ([2]; DKO mice, two oral 60 mg/kg doses (8 am, 6 pm), vs vehicle): not significantly increased | 24-h UGE ([2]; SGLT1 KO mice, single oral dose 1 mg/kg): almost maximal | 24-h UGE ([2]; SGLT1 KO mice, single oral dose, all higher doses (10, 60 mg/kg)): maximal | 24-h UGE ([2]; SGLT1 KO mice, two oral 60 mg/kg doses (8 am, 6 pm)): maximally increased | 24-h UGE ([2]; WT mice, single oral dose 1 mg/kg, vs vehicle): did not show a significant response | 24-h UGE ([2]; WT mice, single oral dose 60 mg/kg, maximal = vehicle-treated DKO): 68 ± 15 % of maximal | 24-h UGE ([2]; WT mice, two oral 60 mg/kg doses (8 am, 6 pm)): 90 ± 17 % of maximal | IC50 [3]: 1 ± 0.3 nM
